Consider 24 compounds from ChEMBL document CHEMBL3228009, “Hypobetalipoproteinemic agents. 2. Compounds related to 4-(1-adamantyloxy)aniline” (J Med Chem, 1979).

For series [1], the system named is Rattus norvegicus. Briefly: Toxicity in diet-induced hypercholesteremic rat model assessed as increase in food intake at 50 mg/kg, po relative to control. The note with it: in vivo. On the set-up: dose 50 mg/kg, route oral. The format is organism-based.
The subject of series [2] is Rattus norvegicus. In words: Toxicity in diet-induced hypercholesteremic rat model assessed as increase in body weight at 50 mg/kg, po relative to control. It is filed as organism-based. Details: dose 50 mg/kg, route oral. The note with it: in vivo.
The test system of series [3] is Rattus norvegicus. In words: Hypobetalipoproteinemic activity in diet-induced hypercholesteremic rat model assessed as decrease in heparin precipitating lipoproteins at 50 mg/kg, po relative to control. It is filed as functional.
The species entered for series [4] is Rattus norvegicus. Briefly: Selectivity ratio of T/C for heparin precipitating lipoproteins to T/C for total serum cholesterol in diet-induced hypercholesteremic rat model. The format is functional.
In series [5] the test system is Rattus norvegicus. In words: Hypobetalipoproteinemic activity in diet-induced hypercholesteremic rat model assessed as decrease in total serum cholesterol at 50 mg/kg, po relative to control. The format is functional.

For `Nc1ccc(S(=O)(=O)C23CC4CC(CC(C4)C2)C3)cc1`, the Activity with Rattus norvegicus [1] is given as more than 73%; in the series on Rattus norvegicus [2], more than 63%. The T/C with Rattus norvegicus [3] amounted to 1.07; in the series with Rattus norvegicus [5], 1.12. Besides, the Selectivity ratio in the series filed under Rattus norvegicus [4] worked out at 0.95.

As to `Nc1ccc(SC23CC4CC(CC(C4)C2)C3)cc1`, the values for the Activity in the series on Rattus norvegicus [1] and in the series on Rattus norvegicus [2] were more than 73% and more than 63%, respectively. Also, the T/C with Rattus norvegicus [3] was 0.45; in the series with Rattus norvegicus [5], 0.51. Moreover, in the series listed under Rattus norvegicus [4], the Selectivity ratio was found to be 0.87.

On to `OC12CC3CC(CC(C3)C1)C2`, for which the results for the Activity in the series with Rattus norvegicus [1] and with Rattus norvegicus [2] were more than 73% and more than 63%, respectively. The T/C with Rattus norvegicus [3] came to 0.98; in the series on Rattus norvegicus [5], 0.94. Also, in the series filed under Rattus norvegicus [4], the Selectivity ratio turned out to be 1.04.

Consider `CSCc1cc(OC23CC4CC(CC(C4)C2)C3)cc(C)c1N`, for which the values for the Activity with Rattus norvegicus [1] and in the series on Rattus norvegicus [2] were more than 73% and more than 63%, respectively. In addition, the figures for the T/C in the series on Rattus norvegicus [3] and in the series on Rattus norvegicus [5] were 0.85 and 0.88, respectively. For the same compound, the Selectivity ratio in the series listed under Rattus norvegicus [4] came to 0.96.

Regarding `Cc1cc(OC23CC4CC(CC(C4)C2)C3)cc(C)c1N`, the Activity was more than 73% in the series on Rattus norvegicus [1] and more than 63% in the series on Rattus norvegicus [2]. Moreover, the T/C in the series on Rattus norvegicus [3] came to 0.72; in the series on Rattus norvegicus [5], 0.77. The Selectivity ratio in the series listed under Rattus norvegicus [4] is listed as 0.93.

With `Cc1cc(OC23CC4CC(CC(C4)C2)C3)cc(C)c1N1CCCC1`, the Activity is more than 73% in the series with Rattus norvegicus [1] and more than 63% in the series on Rattus norvegicus [2]. In addition, the values for the T/C with Rattus norvegicus [3] and in the series with Rattus norvegicus [5] were 1.28 and 1.18, respectively. In addition, in the series listed under Rattus norvegicus [4], the Selectivity ratio is given as 1.08.

With `Cl.Nc1ccc(C23CC4CC(CC(C4)C2)C3)cc1`, the Activity in the series on Rattus norvegicus [1] is recorded as more than 73%; in the series on Rattus norvegicus [2] it was more than 63%. Moreover, the T/C was 1.4 in the series on Rattus norvegicus [3] and 1.41 with Rattus norvegicus [5]. Moreover, the Selectivity ratio in the series listed under Rattus norvegicus [4] is 0.99.

Consider `c1cc(C23CC4CC(CC(C4)C2)C3)ccc1N1CCCC1`, for which the results for the Activity with Rattus norvegicus [1] and with Rattus norvegicus [2] were more than 73% and more than 63%, respectively. The T/C in the series with Rattus norvegicus [3] is 0.9; in the series with Rattus norvegicus [5], 1.17. Also, the Selectivity ratio in the series filed under Rattus norvegicus [4] is given as 0.77.

For `Cl.Nc1ccc(CC23CC4CC(CC(C4)C2)C3)cc1`, the Activity in the series with Rattus norvegicus [1] was more than 73%; in the series on Rattus norvegicus [2], more than 63%. In addition, the figures for the T/C in the series with Rattus norvegicus [3] and with Rattus norvegicus [5] were 0.23 and 0.45, respectively. Moreover, the Selectivity ratio in the series filed under Rattus norvegicus [4] worked out at 0.5.

`CNc1ccc(CC23CC4CC(CC(C4)C2)C3)cc1.Cl`: the Activity in the series on Rattus norvegicus [1] is more than 73%; with Rattus norvegicus [2], more than 63%. The T/C with Rattus norvegicus [3] amounted to 0.45; in the series with Rattus norvegicus [5], 0.55. Also, the Selectivity ratio in the series filed under Rattus norvegicus [4] was 0.82.

Regarding `c1cc(N2CCCC2)ccc1CC12CC3CC(CC(C3)C1)C2`, the Activity was more than 73% with Rattus norvegicus [1] and more than 63% in the series with Rattus norvegicus [2]. Besides, the T/C in the series with Rattus norvegicus [3] is reported as 0.87; in the series on Rattus norvegicus [5], 0.82. Also, the Selectivity ratio in the series filed under Rattus norvegicus [4] amounted to 1.06.

For the compound `Cl.Nc1ccccc1CC12CC3CC(CC(C3)C1)C2`, the Activity in the series on Rattus norvegicus [1] is recorded as more than 73%; in the series with Rattus norvegicus [2] it was more than 63%. The T/C in the series with Rattus norvegicus [3] is recorded as 0.89; in the series with Rattus norvegicus [5] it was 0.86. Also, in the series filed under Rattus norvegicus [4], the Selectivity ratio is 1.03.

On to `c1ccc(N2CCCC2)c(CC23CC4CC(CC(C4)C2)C3)c1`, for which the Activity in the series on Rattus norvegicus [1] is more than 73%; with Rattus norvegicus [2], more than 63%. Moreover, the T/C with Rattus norvegicus [3] came to 1.4; in the series on Rattus norvegicus [5] it was 1.39. The Selectivity ratio in the series filed under Rattus norvegicus [4] turned out to be 1.01.

Consider `CN(c1ccc(N)cc1)C12CC3CC(CC(C3)C1)C2.Cl`, for which the values for the Activity in the series with Rattus norvegicus [1] and in the series on Rattus norvegicus [2] were less than 73% and less than 63%, respectively. For the same compound, the T/C in the series with Rattus norvegicus [3] is given as 0.82; in the series on Rattus norvegicus [5], 0.84. Besides, in the series filed under Rattus norvegicus [4], the Selectivity ratio worked out at 0.98.

For `CN(c1ccc(N2CCCC2)cc1)C12CC3CC(CC(C3)C1)C2`, the Activity with Rattus norvegicus [1] is more than 73%; in the series on Rattus norvegicus [2], less than 63%. The figures for the T/C in the series on Rattus norvegicus [3] and with Rattus norvegicus [5] were 1.02 and 0.93, respectively. The Selectivity ratio in the series listed under Rattus norvegicus [4] stood at 1.1.

Take `Nc1ccc(NC23CC4CC(CC(C4)C2)C3)cc1`: the Activity is more than 73% with Rattus norvegicus [1] and less than 63% in the series with Rattus norvegicus [2]. In addition, the T/C is 0.85 in the series on Rattus norvegicus [3] and 0.94 with Rattus norvegicus [5]. Further, the Selectivity ratio in the series filed under Rattus norvegicus [4] is listed as 0.9.

Turning to `CC(=O)Nc1ccc(N(C(C)=O)C23CC4CC(CC(C4)C2)C3)cc1`, the Activity with Rattus norvegicus [1] is recorded as more than 73%; in the series on Rattus norvegicus [2] it was more than 63%. For the same compound, the T/C in the series with Rattus norvegicus [3] amounted to 0.98; in the series on Rattus norvegicus [5], 1. For the same compound, in the series filed under Rattus norvegicus [4], the Selectivity ratio is on record as 0.98.

Regarding `c1cc(N2CCCC2)ccc1SC12CC3CC(CC(C3)C1)C2`, the values for the Activity in the series with Rattus norvegicus [1] and in the series on Rattus norvegicus [2] were more than 73% and more than 63%, respectively. Also, the T/C was 0.95 in the series with Rattus norvegicus [3] and 0.83 in the series with Rattus norvegicus [5]. For the same compound, the Selectivity ratio in the series listed under Rattus norvegicus [4] was 1.14.

As to `Nc1ccc(OC2C3CC4CC(C3)CC2C4)cc1` (stereo not given), the Activity with Rattus norvegicus [1] was more than 73%; in the series with Rattus norvegicus [2] it was more than 63%. Further, the T/C with Rattus norvegicus [3] is given as 0.67; in the series with Rattus norvegicus [5], 0.82. Also, the Selectivity ratio in the series filed under Rattus norvegicus [4] is listed as 0.82.

Take `CC1(Oc2ccc(N)cc2)C2CC3CC(C2)CC1C3` (stereo not given): the Activity was more than 73% in the series with Rattus norvegicus [1] and less than 63% with Rattus norvegicus [2]. Further, the T/C in the series with Rattus norvegicus [3] is given as 0.45; with Rattus norvegicus [5], 0.58. In the series filed under Rattus norvegicus [4], the Selectivity ratio was determined as 0.77.

For the compound `c1cc(N2CCCC2)ccc1OC1C2CC3CC(C2)CC1C3` (stereo not given), the Activity with Rattus norvegicus [1] was more than 73%; in the series on Rattus norvegicus [2], more than 63%. The T/C in the series on Rattus norvegicus [3] and with Rattus norvegicus [5] was 1.07 in each case. In addition, in the series filed under Rattus norvegicus [4], the Selectivity ratio turned out to be 1.01.

Consider `CC1(Oc2ccc(N3CCCC3)cc2)C2CC3CC(C2)CC1C3` (stereo not given), for which the Activity in the series on Rattus norvegicus [1] is more than 73%; in the series on Rattus norvegicus [2], more than 63%. For the same compound, the results for the T/C with Rattus norvegicus [3] and with Rattus norvegicus [5] were 1.03 and 1.04, respectively. In addition, the Selectivity ratio in the series filed under Rattus norvegicus [4] amounted to 0.99.

In the case of `CNc1ccc(OC2C3CC4CC(C3)CC2C4)cc1.Cl` (stereo not given), the Activity in the series with Rattus norvegicus [1] was more than 73%; in the series on Rattus norvegicus [2] it was more than 63%. Moreover, the T/C in the series on Rattus norvegicus [3] turned out to be 0.87; in the series on Rattus norvegicus [5] it was 0.83. Moreover, the Selectivity ratio in the series listed under Rattus norvegicus [4] stood at 1.04.

Consider `Nc1ccc(O)cc1` [4-AMINOPHENOL], for which the Activity in the series on Rattus norvegicus [1] is on record as more than 73%; in the series on Rattus norvegicus [2], more than 63%. For the same compound, the T/C in the series with Rattus norvegicus [3] is 0.98; with Rattus norvegicus [5] it was 0.94. The Selectivity ratio in the series filed under Rattus norvegicus [4] stood at 1.04.
